Our source for the Activity and IC50 values is ChEMBL document CHEMBL4340575, “Design, synthesis and biological evaluation of novel aryl-acrylic derivatives as novel indoleamine-2,3-dioxygenase 1 (IDO1) inhibitors” (Bioorg Med Chem, 2019).

For series [1], the system named is HeLa. Nature of the series: Toxicity in human HeLa cells assessed as reduction in cell viability. It is filed as cell-based.
The target in series [2] is T1, Indoleamine 2,3-dioxygenase 1 (Homo sapiens, UniProt P14902). Nature of the series: Inhibition of purified recombinant human IDO1 using L-tryptophan substrate incubated fro 30 mins.
Series [3] deals with T1, Indoleamine 2,3-dioxygenase 1. Nature of the series: Inhibition of IDO1 in interferon-gamma-induced human HeLa cells using L-tryptophan substrate incubated for 24 hrs. It counts as cell-based.

T1 sequence (P14902 whole entry): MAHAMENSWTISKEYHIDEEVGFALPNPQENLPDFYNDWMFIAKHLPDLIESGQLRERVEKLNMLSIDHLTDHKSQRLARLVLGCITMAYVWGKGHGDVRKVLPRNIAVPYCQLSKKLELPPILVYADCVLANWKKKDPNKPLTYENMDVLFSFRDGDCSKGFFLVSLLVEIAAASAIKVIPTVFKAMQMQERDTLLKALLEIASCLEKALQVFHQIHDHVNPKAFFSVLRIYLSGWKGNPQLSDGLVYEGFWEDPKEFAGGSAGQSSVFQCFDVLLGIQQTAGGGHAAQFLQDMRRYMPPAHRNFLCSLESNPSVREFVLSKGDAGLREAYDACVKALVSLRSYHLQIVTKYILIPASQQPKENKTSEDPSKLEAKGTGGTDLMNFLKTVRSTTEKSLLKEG

On to `CCCCN(CCCC)c1ccc(/C(C)=C/C(=O)O)cc1NC(=O)N/N=C/c1ccccc1C(F)(F)F`, for which, in series [1], the Activity entry was “Non-Toxic”. In addition, the values for the IC50 in series [2] and in series [3] were 12.3 µM and 2.83 µM, respectively.

As for `CCCCN(CCCC)c1ccc(/C(C)=C/C(=O)O)cc1NC(=O)N/N=C/c1ccc(Cl)cc1`, in series [1], the Activity result is on record as “Non-Toxic”. For the same compound, the results for the IC50 in series [2] and in series [3] were 14.4 µM and 3.87 µM, respectively.

In the case of `C/C(=C\C(=O)O)c1ccc(N(CC(C)C)CC(C)C)c(NC(=O)N/N=C/c2ccccc2F)c1`, the Activity entry in series [1] is on record as “Non-Toxic”. Moreover, the IC50 in series [2] is 10.1 µM; in series [3], 1.95 µM.

`C/C(=C\C(=O)O)c1ccc(N2CCOCC2)c(-n2cc(CNc3ccc(F)cc3)nn2)c1`: the IC50 in series [2] came out at 58.3 µM; in series [3], 20 µM.

`C/C(=C\C(=O)O)c1ccc(N(CC(C)C)CC(C)C)c(NC(=O)N/N=C/c2ccc(Cl)cc2)c1`: the Activity entry in series [1] is on record as “Non-Toxic”. In addition, the IC50 turned out to be 10.2 µM in series [2] and 1.02 µM in series [3].

Broadly, the IC50 is the concentration that gives 50% inhibition.
